In patent publication US20160031909A1, “PORPHYRAZINE OPTICAL AND DUAL OPTICAL/ MR CONTRAST AND THERAPEUTIC AGENTS” (HOFFMAN/BARRETT, LLC, priority 2013, published 2016):

Assays:
[1] = Water solubility; format: physicochemical
Experimental: The pz platform is diol pz 285, which was prepared and activated for nucleophilic substitution by arenesulfonylation to produce bis-tosylate pz 286 as previously described (13). Subsequent nucleophilic substitution of pz 286 with excess sodium azide gave diazide pz 288, which was suitable for conjugation via cycloaddition reactions with the alkyne-functionalized Gd595. (Scheme 1). The use of catalytic copper(II) sulfate in this conjugation reaction partially metallates the pz core. To address this issue, pz 288 either was metallated with ZnCl2 prior to reaction with the alkyne or a stoichiometric amount of the […] catalyst was used to ensure that the pz core was completely cuprated. Standard cycloaddition reaction conditions were subsequently used to conjugate metallated pz diazides with Gd595 to produce Zn-Pz-Gd(III) and Cu-Pz-Gd(III) conjugates, which were isolated by preparative HPLC in 52% and 57% isolated yields, respectively. Trace amounts of Zn-Pz-Gd(III) were transmetallated to Cu-Pz-Gd(III), but this small amount was removed during purification.

[2] = HPLC analysis of urine collected from mice; format: in vivo, athymic nude mice
[3] = test system: MDA-MB-231 cells; test: In vitro cellular uptake, Gd(III) content by ICP-MS; format: cell-based; details: MDA-MB-231, 24 hours, compared with equivalent DOTA-Gd(III)
Experimental: Breast tumor cells (MDA-MB-231) were treated with M-Pz-Gd(III) complexes at varying concentrations for 24 hours, washed, digested in acid, and Gd(III) content was measured by ICP-M S (FIG. 1). An M-Pz-Gd(III) dose of 50 μM corresponds to an overall Gd(III) dose of 100 μM because two Gd(III) ions are present per molecule. Cells also were treated with an equivalent amount of DOTA-Gd(III), an agent known not to cross cell membranes.
After cell harvesting, an aliquot of the cell suspensions was mixed with Guava ViaCount reagent and allowed to stain at room temperature for at least 5.0 minutes (no longer than 20 minutes). Stained samples were vortexed for 10 seconds and counted. Percent cell viability was determined via manual analysis using a Guava EasyCyte Mini Personal Cell Analyzer (PCA) and ViaCount software module. For each sample, 1000 events were acquired with dilution factors that were determined based upon optimum machine performance (about 25-70 cells/μL).
Quantification of Gd was accomplished using ICP-MS of acid digested samples. Solution samples were digested in ACS reagent grade nitric acid (70%, Sigma, St. Louis, Mo., USA) and incubated in a water bath at 70° C. for at least 2 hours to allow for complete sample digestion. […]

Substance: Cu[Pz(C19H28N8O7Gd)2]. Pz=18,21-bis(2-(1H-1,2,3-triazole-4-yl) ethoxy)-tris-[1,4-dioxino[g,l,q](2R,3R)-2,3-dimethoxy-2,3-dimethyll 25H,27H-benzo[b]porphyrazine; C19H28N8O7Gd=N-methyl-2-aminoacetamide-4,7,10-tris(carboxymethyl)-1,4,7,10-tetraazacyclododecylgadolinium(III)) [Cu-Pz-Gd(III)]
- water solubility [1]: freely water soluble
- form cleared in urine [2]: cleared intact
- Cellular uptake, Gd(III) content per cell [3]: two-fold increase
